Experimental findings from patent US20240270771A1, “Compound containing phosphate group, pharmaceutical composition containing same, preparation method therefor and use thereof” (SHANGHAI RAISING PHARMACEUTICAL CO., LTD., priority 2021, published 2024) are described below.

Assay [1] has as its system Aβ40. Description: Aβ40 content in culture supernatant of HEK293APP/sw overexpressing cells (ELISA kit). In kind it is cell-based. Conditions: compound 400 μM, 24 hours, adjusted by total protein concentration, blank control 127.81. The method, then:
(§1) BCA Protein Assay Kit was purchased from Beyotime, Aβ40 and Aβ42 detection kits were purchased from Wako, and cell culture related reagents were purchased from Gibco.
(§2) HEK293APP/sw overexpressing cells were cultured in DMEM medium containing 10% FBS, 100 μg/mL G418 (Geneticin) and 1×Penicillin-Streptomycin in 48-well plates. A 4 mM compound stock solution (prepared by dissolving the compound in DMEM culture medium) was filtered through a 0.22 μm sterile filter and stored at −20° C. for subsequent use. At 70% cell density, 40 μL of the compound test solution was added to each well to reach a final concentration of 400 μM, and the plate was incubated for 24 hours.
(§3) The supernatant of the culture medium was collected. The BCA reagent was added to a part of the supernatant, after incubating at room temperature for 30 min, the absorbance value (i.e., OD value) of each well was determined by a microplate reader at 570 nm. The total protein concentration was calculated according to a protein standard curve. Meanwhile, the other part of the supernatant (100 μL) was added to a coated 96-well plate and incubated overnight at 4° C., after the solution was removed and the reagents were washed, HRP (horseradish peroxidase)-labeled antibody was added and incubated at 4° C. for 2 hours. After the reagents were removed and washed, a TMB chromogenic solution was added, the plate was incubated at room temperature for 30 min, and then a stop solution was added to stop the reaction. The absorbance value (i.e., OD value) of each well was measured by a microplate reader at 450 nm. The concentrations of Aβ40 and Aβ42 were calculated according to the standard curves of Aβ40 and Aβ42, respectively. In the end, the concentrations of Aβ40 and Aβ42 were adjusted by the total protein concentration, so as to obtain the final concentration.
For orientation: ELISA stands for enzyme-linked immunosorbent assay.

The subject of assay [2] is Aβ42. Description: Aβ42 content in culture supernatant of HEK293APP/sw overexpressing cells (ELISA kit). It is filed as cell-based. The settings on record: compound 400 μM, 24 hours, adjusted by total protein concentration, blank control 11.08. The method, then:
as §1, §2, §3

For assay [3], the system named is sodium nitrite-induced hypoxic memory impairment model. In words: Jumping stand test, sodium nitrite-induced hypoxic memory impairment model. In kind it is in vivo, ICR mice. Conditions: sodium nitrite 120 mg/kg s.c., compound 200 mg/kg gavage once a day 3 weeks; for Number of errors: model group 1.4 ± 0.7; for Latency period: model group 93.8 ± 90.25. The method, then:
The mice employed in the present test were purchased from Xipuer-BIKAI Laboratory Animal Co., Ltd., and they were SPF grade ICR mice, 3-4 weeks old, weighing 16-18 g.
Sodium nitrite (NaNO2) was purchased from Sinopharm Chemical Reagent Co., Ltd.; Product No.: 10020018; Specification: analytical grade.
Test article preparation: 100 mg of the compound to be tested was weighed and added to 10 mL of 0.7% CMC-Na to prepare a 10 mg/mL suspension for use.
The laboratory mice were randomly divided into groups (9 or 10 mice per group). The mice in each group were administrated at a dosage of 0.2 mL/10 g body weight by oral gavage once a day for three weeks.
The laboratory animals were administered by gavage for 3 consecutive weeks according to the above administration dosage/specification. Training was started on the last day of administration, and the test was conducted 24 hours later.
The laboratory animals were administered by gavage for three weeks. One hour after the last administration, the animals were trained with YLS-3 TB jumping stand detector. After the training, sodium nitrite (mouse: 120 mg/kg) was injected subcutaneously (in the neck) immediately. The jumping stand test was conducted 24 hours later. The latency period (the time from the start of counting to the first time of jumping off the stand) and the number of errors (the number of electric shock) were recorded.
The YLS-3 TB jumping stand detector were divided into five compartments by transparent boards. The bottom of the compartment was covered with a copper grid and applied with a voltage of 50 V A rubber pad stand with a height of 3.5 cm and a diameter of 3.5 cm was placed in each compartment to serve as a safe area for mice to avoid electric shock. Training of laboratory mice before the formal test: the laboratory mice were placed in the small compartment with a stand to get familiar with the environment for 5 min (the five compartments were connected), and then electrified for stimulation (all the laboratory mice were on the grid at this time), at the voltage of 50 V and current of 1.00 mA. Mice have the habit of jumping from a high place. If they jump, they will be shocked to produce memory. The current was applied for 5 min, which served as the training process.
Testing: the animals were put on the stand in the jumping compartment one by one. The time interval for putting each animal was 5 s. After the first animal was put on the stand, the electricity was applied immediately. The electricity was applied for 6 min. At the end of applying electricity, data were printed, and the latency period (the time from the start of counting to the first time of jumping off the stand) and the number of errors (the number of electric shock during the testing period) were recorded. Due to the different time of putting the animal in, the time difference can be subtracted according to the actual time of putting the animal.

The structures appear in SMILES notation.

For `CCCC(CCC)C(=O)S/C(CCOP(=O)(O)O)=C(/C)N(C=O)Cc1cnc(C)nc1N` [Compound 1, (Z)—S-(2-(N-((4-amino-2-methylpyrimidin-5-yl)methyl)formamido)-5-(phosphonooxy)pent-2-en-3-yl) 2-propylpentanethioate], the “The content of Aβ40” value in assay [1] turned out to be 41.18 pmol/L. Besides, the “The content of Aβ42” value in assay [2] worked out at 3.32 pmol/L. Besides, in assay [3], the Number of errors worked out at 0.4 ± 0.7 and the Latency period turned out to be 228.8 ± 155.9 s.
For `CCC(CC)C(=O)S/C(CCOP(=O)(O)O)=C(/C)N(C=O)Cc1cnc(C)nc1N` [Compound 2, (Z)—S-(2-(N-((4-amino-2-methylpyrimidin-5-yl)methyl)formamido)-5-(phosphonooxy)pent-2-en-3-yl) 2-ethylbutanethioate] the same measures were 37.39 pmol/L, 3.34 pmol/L, 0.6 ± 0.8 and 210.4 ± 117.3 s.
As for `C/C(=C(\CCOP(=O)(O)O)SC(=O)c1ccco1)N(C=O)Cc1cnc(C)nc1N` [Compound 9, (Z)—S-(2-(N-((4-amino-2-methylpyrimidin-5-yl)methyl)formamido)-5-(phosphonooxy)pent-2-en-3-yl) furan-2-carbothioate], the “The content of Aβ40” value in assay [1] was found to be 42.88 pmol/L. Further, the “The content of Aβ42” value in assay [2] is recorded as 2.94 pmol/L. In assay [3], this compound had a Number of errors of 0.6 ± 0.7 and a Latency period of 209.3 ± 110.4 s.
